The values below come from ChEMBL document CHEMBL5291721, “A preclinical secondary pharmacology resource illuminates target-adverse drug reaction associations of marketed drugs” (Nat Commun, 2023).

What is called AC50 is the concentration giving half of the maximal activity seen.

Experiment [1] concerns the target T1, Muscarinic acetylcholine receptor M1 (Homo sapiens, UniProt P11229).
T1 sequence (P11229 whole entry): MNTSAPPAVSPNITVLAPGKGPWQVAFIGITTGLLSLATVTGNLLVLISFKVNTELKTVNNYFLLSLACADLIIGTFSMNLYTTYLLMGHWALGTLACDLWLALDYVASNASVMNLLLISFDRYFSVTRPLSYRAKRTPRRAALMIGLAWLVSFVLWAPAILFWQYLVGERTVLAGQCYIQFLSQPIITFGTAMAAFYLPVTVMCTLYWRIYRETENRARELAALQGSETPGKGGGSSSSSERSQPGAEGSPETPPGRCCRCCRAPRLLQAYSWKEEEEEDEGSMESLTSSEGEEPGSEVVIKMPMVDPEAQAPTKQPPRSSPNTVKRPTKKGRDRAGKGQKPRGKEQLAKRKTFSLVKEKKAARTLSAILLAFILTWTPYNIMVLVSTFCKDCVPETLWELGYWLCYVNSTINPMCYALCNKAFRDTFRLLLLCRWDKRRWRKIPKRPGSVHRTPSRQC

Experiment [2] concerns the target T2, Alpha-1A adrenergic receptor (Homo sapiens, UniProt P35348).
T2 sequence (P35348 whole entry): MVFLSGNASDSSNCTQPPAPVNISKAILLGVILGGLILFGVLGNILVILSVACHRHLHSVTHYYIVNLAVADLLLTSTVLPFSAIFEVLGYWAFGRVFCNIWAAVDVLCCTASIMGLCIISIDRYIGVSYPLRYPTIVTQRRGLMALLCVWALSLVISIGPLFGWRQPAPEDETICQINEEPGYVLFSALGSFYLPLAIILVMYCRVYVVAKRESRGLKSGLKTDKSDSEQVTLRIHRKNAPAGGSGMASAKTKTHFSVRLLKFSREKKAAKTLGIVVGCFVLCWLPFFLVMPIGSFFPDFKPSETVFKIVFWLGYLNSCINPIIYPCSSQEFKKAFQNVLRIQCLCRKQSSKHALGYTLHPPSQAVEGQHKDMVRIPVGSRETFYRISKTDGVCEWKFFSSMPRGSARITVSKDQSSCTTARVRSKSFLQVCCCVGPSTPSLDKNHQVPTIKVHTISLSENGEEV

The target in experiment [3] is T3, Histamine H1 receptor (Homo sapiens, UniProt P35367). The experiment is classed as functional, cell-based.
T3 sequence (P35367 whole entry): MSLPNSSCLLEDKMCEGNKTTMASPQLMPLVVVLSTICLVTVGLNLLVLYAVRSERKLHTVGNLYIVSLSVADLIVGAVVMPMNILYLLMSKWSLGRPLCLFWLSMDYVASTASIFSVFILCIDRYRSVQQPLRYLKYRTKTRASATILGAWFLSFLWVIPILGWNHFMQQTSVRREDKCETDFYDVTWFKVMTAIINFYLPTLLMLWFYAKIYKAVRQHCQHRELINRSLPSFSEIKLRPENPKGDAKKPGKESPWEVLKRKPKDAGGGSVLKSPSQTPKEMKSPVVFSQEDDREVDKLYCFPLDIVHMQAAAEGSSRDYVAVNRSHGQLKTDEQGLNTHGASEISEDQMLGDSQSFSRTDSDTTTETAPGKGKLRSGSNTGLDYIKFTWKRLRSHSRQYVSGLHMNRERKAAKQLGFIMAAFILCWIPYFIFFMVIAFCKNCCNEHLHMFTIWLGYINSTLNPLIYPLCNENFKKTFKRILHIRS
The target of experiment [4] is T3, Histamine H1 receptor. It is filed as functional, cell-based. The source holds these as a separate data set.
A further experiment deals with T4, Androgen receptor (Rattus norvegicus, UniProt P15207).
T4 sequence (P15207 whole entry): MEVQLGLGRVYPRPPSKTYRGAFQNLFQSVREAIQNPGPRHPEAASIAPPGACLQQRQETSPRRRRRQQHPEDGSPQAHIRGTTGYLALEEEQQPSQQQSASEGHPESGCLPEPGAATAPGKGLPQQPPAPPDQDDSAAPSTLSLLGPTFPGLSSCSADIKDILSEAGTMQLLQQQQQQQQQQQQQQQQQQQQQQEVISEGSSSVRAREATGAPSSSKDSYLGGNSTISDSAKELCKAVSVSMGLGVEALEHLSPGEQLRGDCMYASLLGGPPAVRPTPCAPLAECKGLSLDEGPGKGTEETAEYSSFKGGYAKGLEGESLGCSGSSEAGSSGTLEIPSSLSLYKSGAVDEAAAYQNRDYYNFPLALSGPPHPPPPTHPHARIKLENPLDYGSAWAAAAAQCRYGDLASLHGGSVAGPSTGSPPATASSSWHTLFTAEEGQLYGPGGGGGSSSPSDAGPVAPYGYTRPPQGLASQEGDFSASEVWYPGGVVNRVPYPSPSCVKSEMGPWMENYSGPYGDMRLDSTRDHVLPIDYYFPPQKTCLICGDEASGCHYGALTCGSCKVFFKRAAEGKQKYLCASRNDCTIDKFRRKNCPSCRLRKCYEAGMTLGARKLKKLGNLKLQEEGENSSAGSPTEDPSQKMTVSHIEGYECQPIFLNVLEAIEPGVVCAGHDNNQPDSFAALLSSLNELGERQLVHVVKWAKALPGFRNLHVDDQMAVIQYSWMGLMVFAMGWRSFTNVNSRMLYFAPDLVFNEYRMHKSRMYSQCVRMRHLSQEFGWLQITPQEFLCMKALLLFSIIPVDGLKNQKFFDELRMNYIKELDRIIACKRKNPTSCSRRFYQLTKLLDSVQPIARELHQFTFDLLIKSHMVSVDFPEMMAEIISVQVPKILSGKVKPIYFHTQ
It is filed as functional.

For the next experiment, the target named is T5, Estrogen receptor (Homo sapiens, UniProt P03372).
T5 sequence (P03372 whole entry): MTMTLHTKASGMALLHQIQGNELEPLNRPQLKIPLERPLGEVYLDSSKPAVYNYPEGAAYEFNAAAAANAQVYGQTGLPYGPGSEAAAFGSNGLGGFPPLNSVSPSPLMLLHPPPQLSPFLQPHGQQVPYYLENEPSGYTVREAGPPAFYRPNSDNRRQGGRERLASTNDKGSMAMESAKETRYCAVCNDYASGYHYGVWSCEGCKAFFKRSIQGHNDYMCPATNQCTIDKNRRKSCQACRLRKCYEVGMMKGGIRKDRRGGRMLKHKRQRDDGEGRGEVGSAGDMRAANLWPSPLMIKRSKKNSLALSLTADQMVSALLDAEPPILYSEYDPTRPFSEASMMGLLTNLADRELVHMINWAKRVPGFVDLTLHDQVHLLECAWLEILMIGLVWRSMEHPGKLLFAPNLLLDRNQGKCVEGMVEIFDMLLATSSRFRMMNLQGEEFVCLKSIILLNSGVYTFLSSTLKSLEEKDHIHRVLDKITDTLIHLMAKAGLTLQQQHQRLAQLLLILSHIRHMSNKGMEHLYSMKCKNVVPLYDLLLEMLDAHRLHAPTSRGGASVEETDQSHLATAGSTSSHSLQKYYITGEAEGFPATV
The experiment is classed as functional.

The next experiment has as its target Substance-P receptor (Homo sapiens, UniProt P25103).
The target of experiment [5] is 5-hydroxytryptamine receptor 6 (Homo sapiens, UniProt P50406).
Sequence of 5-hydroxytryptamine receptor 6 (P50406 whole entry): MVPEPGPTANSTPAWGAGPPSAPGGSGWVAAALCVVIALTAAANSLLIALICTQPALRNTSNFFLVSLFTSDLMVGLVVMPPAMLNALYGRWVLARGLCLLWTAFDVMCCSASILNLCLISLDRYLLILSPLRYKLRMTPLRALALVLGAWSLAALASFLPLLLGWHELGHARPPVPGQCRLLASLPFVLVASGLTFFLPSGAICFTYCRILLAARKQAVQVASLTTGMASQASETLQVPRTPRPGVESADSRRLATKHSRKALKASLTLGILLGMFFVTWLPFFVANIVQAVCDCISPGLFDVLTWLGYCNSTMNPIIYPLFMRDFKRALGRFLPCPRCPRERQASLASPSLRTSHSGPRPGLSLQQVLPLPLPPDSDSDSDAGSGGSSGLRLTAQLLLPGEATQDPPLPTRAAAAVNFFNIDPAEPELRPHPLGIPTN
The target in experiment [6] is T2, Alpha-1A adrenergic receptor. This is another data set of the same source.
For experiment [7], the target named is 5-hydroxytryptamine receptor 7 (Homo sapiens, UniProt P34969).
Sequence of 5-hydroxytryptamine receptor 7 (P34969 whole entry): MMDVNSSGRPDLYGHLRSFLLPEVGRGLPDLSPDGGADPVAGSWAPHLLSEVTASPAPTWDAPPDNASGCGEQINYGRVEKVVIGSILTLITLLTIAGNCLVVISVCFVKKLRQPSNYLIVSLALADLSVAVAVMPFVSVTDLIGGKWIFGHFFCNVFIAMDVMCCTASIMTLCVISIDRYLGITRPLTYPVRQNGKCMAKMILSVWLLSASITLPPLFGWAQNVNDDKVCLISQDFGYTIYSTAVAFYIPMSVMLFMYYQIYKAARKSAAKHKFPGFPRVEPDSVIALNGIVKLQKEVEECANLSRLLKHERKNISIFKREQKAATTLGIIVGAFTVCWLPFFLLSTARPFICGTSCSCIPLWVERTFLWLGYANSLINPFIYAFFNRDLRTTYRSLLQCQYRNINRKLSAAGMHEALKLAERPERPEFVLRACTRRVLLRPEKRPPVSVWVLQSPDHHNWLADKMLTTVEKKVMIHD
Experiment [8] deals with Voltage-dependent L-type calcium channel subunit alpha-1C (Homo sapiens, UniProt Q13936). It is filed as functional, cell-based.
Sequence of Voltage-dependent L-type calcium channel subunit alpha-1C (Q13936 whole entry): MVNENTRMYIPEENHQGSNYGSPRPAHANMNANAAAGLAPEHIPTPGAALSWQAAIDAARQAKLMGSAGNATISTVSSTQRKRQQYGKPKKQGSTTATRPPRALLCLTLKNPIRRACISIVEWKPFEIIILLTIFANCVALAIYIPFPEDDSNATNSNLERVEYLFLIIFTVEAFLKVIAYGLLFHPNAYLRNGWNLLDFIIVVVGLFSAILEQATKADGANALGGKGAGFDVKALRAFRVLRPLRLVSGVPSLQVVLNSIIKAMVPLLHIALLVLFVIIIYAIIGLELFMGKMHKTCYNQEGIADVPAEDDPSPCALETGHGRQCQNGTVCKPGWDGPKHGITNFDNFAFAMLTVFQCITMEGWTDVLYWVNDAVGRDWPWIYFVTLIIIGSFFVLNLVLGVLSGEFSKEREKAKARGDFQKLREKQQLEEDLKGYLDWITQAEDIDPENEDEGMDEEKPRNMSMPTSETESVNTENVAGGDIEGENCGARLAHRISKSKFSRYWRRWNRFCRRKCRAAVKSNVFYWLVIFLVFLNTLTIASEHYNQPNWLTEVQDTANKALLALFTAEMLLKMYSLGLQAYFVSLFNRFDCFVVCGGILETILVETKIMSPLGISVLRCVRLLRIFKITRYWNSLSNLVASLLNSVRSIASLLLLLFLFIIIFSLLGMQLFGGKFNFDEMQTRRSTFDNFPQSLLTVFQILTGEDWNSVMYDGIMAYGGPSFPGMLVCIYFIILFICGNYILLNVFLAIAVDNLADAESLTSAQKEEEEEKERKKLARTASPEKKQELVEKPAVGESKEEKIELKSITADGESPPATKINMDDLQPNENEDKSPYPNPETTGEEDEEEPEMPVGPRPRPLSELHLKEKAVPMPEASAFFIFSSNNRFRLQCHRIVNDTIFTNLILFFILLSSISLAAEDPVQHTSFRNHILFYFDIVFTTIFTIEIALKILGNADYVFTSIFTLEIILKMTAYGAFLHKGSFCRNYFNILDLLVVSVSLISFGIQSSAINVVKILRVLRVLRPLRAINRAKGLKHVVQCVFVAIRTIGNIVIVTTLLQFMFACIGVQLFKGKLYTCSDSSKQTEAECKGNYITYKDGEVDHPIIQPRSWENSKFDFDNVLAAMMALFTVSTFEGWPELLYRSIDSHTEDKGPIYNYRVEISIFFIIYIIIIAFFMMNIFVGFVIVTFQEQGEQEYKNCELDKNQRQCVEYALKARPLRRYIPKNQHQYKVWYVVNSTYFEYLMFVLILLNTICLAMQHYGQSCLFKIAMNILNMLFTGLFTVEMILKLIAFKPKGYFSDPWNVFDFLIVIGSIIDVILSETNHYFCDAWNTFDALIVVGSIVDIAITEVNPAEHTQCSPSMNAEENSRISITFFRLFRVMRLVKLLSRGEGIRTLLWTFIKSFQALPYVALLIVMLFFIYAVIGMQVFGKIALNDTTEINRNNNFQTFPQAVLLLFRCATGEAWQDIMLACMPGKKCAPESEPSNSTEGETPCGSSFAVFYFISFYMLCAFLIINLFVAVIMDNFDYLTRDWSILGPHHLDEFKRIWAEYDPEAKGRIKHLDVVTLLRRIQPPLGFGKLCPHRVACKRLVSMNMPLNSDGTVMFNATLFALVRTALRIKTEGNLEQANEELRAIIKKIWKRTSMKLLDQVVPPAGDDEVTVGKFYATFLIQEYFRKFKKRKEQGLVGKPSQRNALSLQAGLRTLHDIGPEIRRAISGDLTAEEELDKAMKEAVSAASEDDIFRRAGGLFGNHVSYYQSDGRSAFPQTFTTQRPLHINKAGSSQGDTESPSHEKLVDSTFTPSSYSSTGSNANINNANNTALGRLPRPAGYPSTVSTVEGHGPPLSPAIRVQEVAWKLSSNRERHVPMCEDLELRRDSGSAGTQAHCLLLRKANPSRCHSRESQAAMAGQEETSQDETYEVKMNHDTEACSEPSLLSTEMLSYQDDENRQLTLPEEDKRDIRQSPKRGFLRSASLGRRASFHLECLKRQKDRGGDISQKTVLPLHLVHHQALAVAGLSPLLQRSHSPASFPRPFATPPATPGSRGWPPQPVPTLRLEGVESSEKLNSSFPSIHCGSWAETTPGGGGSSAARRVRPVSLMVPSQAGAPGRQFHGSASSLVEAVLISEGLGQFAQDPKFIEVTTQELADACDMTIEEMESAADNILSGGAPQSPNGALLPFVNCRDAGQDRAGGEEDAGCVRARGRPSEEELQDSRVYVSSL
The target of another experiment is Estrogen receptor beta (Homo sapiens, UniProt Q92731).
Sequence of Estrogen receptor beta (Q92731 whole entry): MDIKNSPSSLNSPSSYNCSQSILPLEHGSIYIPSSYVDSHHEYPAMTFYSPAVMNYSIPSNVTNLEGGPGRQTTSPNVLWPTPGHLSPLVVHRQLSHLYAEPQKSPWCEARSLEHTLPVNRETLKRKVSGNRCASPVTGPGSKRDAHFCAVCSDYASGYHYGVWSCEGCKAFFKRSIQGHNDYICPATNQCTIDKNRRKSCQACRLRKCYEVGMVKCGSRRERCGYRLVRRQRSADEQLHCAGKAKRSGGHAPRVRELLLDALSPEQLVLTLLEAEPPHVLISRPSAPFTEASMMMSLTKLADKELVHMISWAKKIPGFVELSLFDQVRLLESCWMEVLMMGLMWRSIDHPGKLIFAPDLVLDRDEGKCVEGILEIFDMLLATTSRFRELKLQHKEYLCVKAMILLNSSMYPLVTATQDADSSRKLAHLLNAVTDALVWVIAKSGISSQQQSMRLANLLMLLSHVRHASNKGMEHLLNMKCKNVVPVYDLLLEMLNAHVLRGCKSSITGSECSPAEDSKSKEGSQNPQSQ
Further: assay procedure not described here.

Sequence of Substance-P receptor (P25103 whole entry): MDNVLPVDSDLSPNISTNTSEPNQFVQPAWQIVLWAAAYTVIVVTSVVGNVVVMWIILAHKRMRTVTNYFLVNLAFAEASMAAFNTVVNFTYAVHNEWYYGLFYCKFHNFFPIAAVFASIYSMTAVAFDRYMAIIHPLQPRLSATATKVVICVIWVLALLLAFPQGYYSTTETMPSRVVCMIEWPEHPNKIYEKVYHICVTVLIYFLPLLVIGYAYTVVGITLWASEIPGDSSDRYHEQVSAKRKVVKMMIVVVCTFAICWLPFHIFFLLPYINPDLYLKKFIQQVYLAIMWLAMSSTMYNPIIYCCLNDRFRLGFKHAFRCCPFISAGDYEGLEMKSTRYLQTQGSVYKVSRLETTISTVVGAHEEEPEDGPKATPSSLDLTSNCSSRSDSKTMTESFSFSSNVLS

Take `OC[C@H]1O[C@@](CO)(O[C@H]2O[C@H](CO)[C@@H](O)[C@H](O)[C@H]2O)[C@@H](O)[C@@H]1O` [SUCROSE]: the AC50 (in experiment [1]; in experiment [2]; on Histamine H1 receptor [3]; at Histamine H1 receptor [4]) was more than 30 µM throughout.

Turning to `COc1cc2nccc(Oc3ccc(NC(=O)C4(C(=O)Nc5ccc(F)cc5)CC4)cc3)c2cc1OC` [CABOZANTINIB], the AC50 was more than 30 µM on Androgen receptor and more than 10 µM at Estrogen receptor.

As for `N[C@@H](CC(=O)N1CCn2c(nnc2C(F)(F)F)C1)Cc1cc(F)c(F)cc1F` [SITAGLIPTIN], the AC50 is more than 10 µM at Substance-P receptor; more than 30 µM on Androgen receptor; more than 10 µM in experiment [5]; more than 10 µM in [6]; more than 10 µM in [7]; more than 50 µM in experiment [8]. This compound also registered an AC50 at Estrogen receptor of more than 30 µM.

Regarding `CCOC(=O)c1c(C)cc2c(CO)n[nH]c(=O)c2c1C` [OXAGRELATE], the AC50 in [1] and in experiment [2] was more than 30 µM each time.

Take `FC(F)(F)c1ccc(CNc2ccc(Cc3c[nH]c4ncc(Cl)cc34)cn2)cn1` [PEXIDARTINIB]: the AC50 in experiment [1] came to 0.3 µM; in experiment [2], 1.31 µM.

With `O=C1CCc2cc(OCCCCc3nnnn3C3CCCCC3)ccc2N1` [CILOSTAZOL], the AC50 in experiment [8] is more than 50 µM.

In the case of `CCN(CC)CCNC(=O)c1c(C)[nH]c(/C=C2\C(=O)Nc3ccc(F)cc32)c1C` [SUNITINIB], the AC50 was 5.9 µM at Androgen receptor, 2.39 µM in [5], more than 30 µM in [7] and more than 50 µM in [8].

As for `CC[C@@]1(O)C(=O)OCc2c1cc1n(c2=O)Cc2cc3c([N+](=O)[O-])cccc3nc2-1` [RUBITECAN], the AC50 in [1] and in experiment [2] was more than 30 µM each time.

With `CC(C)N(CCC(C(N)=O)(c1ccccc1)c1ccccn1)C(C)C` (configuration not stated) [DISOPYRAMIDE], the AC50 is more than 50 µM in experiment [8], more than 30 µM on Estrogen receptor beta, more than 30 µM on Histamine H1 receptor [3] and more than 30 µM at Histamine H1 receptor [4].

As for `CCN1CCN(Cc2ccc(Nc3ncc(F)c(-c4cc(F)c5nc(C)n(C(C)C)c5c4)n3)nc2)CC1` [ABEMACICLIB], the AC50 at Androgen receptor and on Estrogen receptor was more than 30 µM each time.

Regarding `CN(CC1(C)CCCO1)S(=O)(=O)c1ccc(Cl)c(S(N)(=O)=O)c1` (configuration not stated) [MEFRUSIDE], the AC50 in experiment [1] and in [2] was more than 30 µM each time.

Regarding `C#C[C@]1(O)CC[C@H]2[C@@H]3CCC4=CC(=O)CC[C@@H]4[C@H]3C(=C)C[C@@]21CC` [ETONOGESTREL], the half-maximal activity concentration (AC50) in experiment [1] and in experiment [2] was more than 30 µM throughout.

The compound `C[C@H](CCC(=O)O)[C@H]1CC[C@H]2[C@@H]3[C@@H](O)C[C@@H]4C[C@H](O)CC[C@]4(C)[C@H]3CC[C@]12C` [URSODIOL] had an AC50 at Estrogen receptor of more than 30 µM.

Take `CC(C)(O)CNc1nc(Nc2ccnc(C(F)(F)F)c2)nc(-c2cccc(C(F)(F)F)n2)n1` [ENASIDENIB]: the AC50 in experiment [1] and in [2] was more than 30 µM each time.

As to `CC(C)c1nc(N(C)S(C)(=O)=O)nc(-c2ccc(F)cc2)c1/C=C/[C@@H](O)C[C@@H](O)CC(=O)O` [ROSUVASTATIN], the AC50 on Estrogen receptor, on Histamine H1 receptor [3] and on Histamine H1 receptor [4] was more than 30 µM throughout.

With `C=CC[C@@H]1/C=C(\C)C[C@H](C)C[C@H](OC)[C@H]2O[C@@](O)(C(=O)C(=O)N3CCCC[C@H]3C(=O)O[C@H](/C(C)=C/[C@@H]3CC[C@@H](O)[C@H](OC)C3)[C@H](C)[C@@H](O)CC1=O)[C@H](C)C[C@@H]2OC` [TACROLIMUS ANHYDROUS], the AC50 was more than 10 µM on Substance-P receptor; more than 30 µM at Androgen receptor; more than 10 µM in [5]; more than 10 µM in experiment [6]; more than 10 µM in experiment [7]; more than 50 µM in experiment [8]. In addition, the AC50 on Estrogen receptor and on Estrogen receptor beta was more than 30 µM each time.

Take `CN1C[C@H](C(=O)N[C@]2(C)O[C@@]3(O)[C@@H]4CCCN4C(=O)[C@H](Cc4ccccc4)N3C2=O)C=C2c3cccc4[nH]cc(c34)C[C@H]21` [ERGOTAMINE]: on Estrogen receptor, the half-maximal activity concentration (AC50) was more than 30 µM.

Take `C[C@@H](Oc1cc(-c2cnn(C3CCNCC3)c2)cnc1N)c1c(Cl)ccc(F)c1Cl` [CRIZOTINIB]: the AC50 (at Androgen receptor; in experiment [8]; on Estrogen receptor) was more than 30 µM in each case.
